Data published in BindingDB's records for patent US20240043440 (Case Western Reserve University, 2024).

Target: T1, 15-hydroxyprostaglandin dehydrogenase [NAD(+)] (Homo sapiens, UniProt P15428)
T1 sequence (P15428 whole entry): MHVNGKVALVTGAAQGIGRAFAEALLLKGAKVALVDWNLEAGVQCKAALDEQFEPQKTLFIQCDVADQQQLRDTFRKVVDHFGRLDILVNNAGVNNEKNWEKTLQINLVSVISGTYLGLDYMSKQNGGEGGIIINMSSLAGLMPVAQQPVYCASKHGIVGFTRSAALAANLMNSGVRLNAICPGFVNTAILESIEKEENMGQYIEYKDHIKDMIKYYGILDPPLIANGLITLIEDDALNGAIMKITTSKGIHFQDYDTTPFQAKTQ
Assay: In vitro Assay (1 nM)
Experimental: Each compound for inhibiting enzymatic activity of recombinant 15-PGDH (1 nM) in an in vitro assay.

| Compound | IC50 |
| --- | --- |
| CCOCC[S+]([O-])c1sc2nc(-c3nccs3)cc(-c3cncn3C)c2c1N (configuration not stated) [US20240043440, Example 31] | 1.8 nM |
| Cn1cncc1-c1cc(-c2nccs2)nc2sc([S+]([O-])C3CCCC3)c(N)c12 (configuration not stated) [US20240043440, Example 32] | 1.6 nM |
| Cn1cncc1-c1cc(-c2nccs2)nc2sc([S+]([O-])C3CCCCC3)c(N)c12 (configuration not stated) [US20240043440, Example 33] | 1.6 nM |
| CCOCC[S+]([O-])c1sc2nc(-c3nccs3)cc(-c3cnc(C)n3C)c2c1N (configuration not stated) [US20240043440, Example 34] | 3.1 nM |
| Cc1ncc(-c2cc(-c3nccs3)nc3sc([S+]([O-])CC(C)C)c(N)c23)n1C (configuration not stated) [US20240043440, Example 35] | 3.6 nM |
| COCC[S+]([O-])c1sc2nc(-c3nccs3)cc(-c3cncn3C)c2c1N (configuration not stated) [US20240043440, Example 36] | 1.5 nM |
| COCCC[S+]([O-])c1sc2nc(-c3nccs3)cc(-c3cncn3C)c2c1N (configuration not stated) [US20240043440, Example 37] | 1.8 nM |
| CCCC[S+]([O-])c1sc2nc(-c3cccnc3)cc(-c3cnc(C)n3C)c2c1N (configuration not stated) [US20240043440, Example 38] | 1.4 nM |
| CCCC[S+]([O-])c1sc2nc(-c3cncnc3)cc(-c3cnc(C)n3C)c2c1N (configuration not stated) [US20240043440, Example 39] | 1.2 nM |
| CCCC[S+]([O-])c1sc2nc(-c3ccccn3)cc(-c3cnc(C)n3C)c2c1N (configuration not stated) [US20240043440, Example 40] | 2.4 nM |
| CCCC[S+]([O-])c1sc2nc(-c3cccnc3)cc(-c3cncn3C)c2c1N (configuration not stated) [US20240043440, Example 43] | 1.1 nM |
| CCCC[S+]([O-])c1sc2nc(-c3ncccn3)cc(-c3ccccc3)c2c1N (configuration not stated) [US20240043440, Example 44] | 1.7 nM |
| CCCC[S+]([O-])c1sc2nc(-c3ncccc3F)cc(-c3cnc(C)n3C)c2c1N (configuration not stated) [US20240043440, Example 45] | 2.2 nM |
| CCCC[S+]([O-])c1sc2nc(-c3ccncn3)cc(-c3ccccc3)c2c1N (configuration not stated) [US20240043440, Example 47] | 1.1 nM |
| COCC[S+]([O-])c1sc2nc(-c3cccnc3)cc(-c3cncn3C)c2c1N (configuration not stated) [US20240043440, Example 49] | 1.8 nM |
| COCCC[S+]([O-])c1sc2nc(-c3cccnc3)cc(-c3cncn3C)c2c1N (configuration not stated) [US20240043440, Example 50] | 1.4 nM |
| CCCC[S+]([O-])c1sc2nc(-c3cccnc3)cc(-c3nccs3)c2c1N (configuration not stated) [US20240043440, Example 51] | 1 nM |
| CCCC[S+]([O-])c1sc2nc(-c3cncnc3)cc(-c3cnc(C4CC4)n3C)c2c1N (configuration not stated) [US20240043440, Example 53] | 2.6 nM |
| CCCC[S+]([O-])c1sc2nc(-c3cccnc3)cc(-c3cccnc3)c2c1N (configuration not stated) [US20240043440, Example 54] | 0.82 nM |

| Compound | IC50 |
| --- | --- |
| CCCC[S+]([O-])c1sc2nc(-c3cccnc3)cc(-c3ccccc3F)c2c1N (configuration not stated) [US20240043440, Example 55] | 1 nM |
| CCCC[S+]([O-])c1sc2nc(-c3cnccc3C)cc(-c3cnc(C)n3C)c2c1N (configuration not stated) [US20240043440, Example 56] | 2.2 nM |
| CCCC[S+]([O-])c1sc2nc(-c3cccnc3)cc(-c3cccc(C#N)c3)c2c1N (configuration not stated) [US20240043440, Example 57] | 1.1 nM |
| CCCC[S+]([O-])c1sc2nc(-c3cccnc3)cc(-c3ccccn3)c2c1N (configuration not stated) [US20240043440, Example 58] | 1.2 nM |
| CCCC[S+]([O-])c1sc2nc(-c3cccnc3)cc(-c3ccc(C#N)cc3)c2c1N (configuration not stated) [US20240043440, Example 59] | 0.91 nM |
| CCCC[S+]([O-])c1sc2nc(-c3cnc(NC)nc3)cc(-c3ccccc3)c2c1N (configuration not stated) [US20240043440, Example 60] | 1.4 nM |
| CCCC[S+]([O-])c1sc2nc(-c3cnc(N)nc3)cc(-c3ccc(F)cc3)c2c1N (configuration not stated) [US20240043440, Example 61] | 1.1 nM |
| CCCC[S+]([O-])c1sc2nc(-c3ccc(N)nc3)cc(-c3ccccc3)c2c1N (configuration not stated) [US20240043440, Example 62] | 1.5 nM |
| CCCC[S+]([O-])c1sc2nc(-c3cnc(N(C)C)nc3)cc(-c3ccccc3)c2c1N (configuration not stated) [US20240043440, Example 63] | 1.7 nM |
| COCCC[S+]([O-])c1sc2nc(-c3cnc(N)nc3)cc(-c3ccccc3)c2c1N (configuration not stated) [US20240043440, Example 65] | 1.1 nM |
| COCCC[S+]([O-])c1sc2nc(-c3cnn(C)c3)cc(-c3ccccc3)c2c1N (configuration not stated) [US20240043440, Example 66] | 1.4 nM |
| CCCC[S+]([O-])c1sc2nc(-c3cnc(N)nc3)cc(-c3nccs3)c2c1N (configuration not stated) [US20240043440, Example 69] | 1.1 nM |
| COCCC[S+]([O-])c1sc2nc(-c3cnco3)cc(-c3ccccc3)c2c1N (configuration not stated) [US20240043440, Example 70] | 0.88 nM |
| CCCC[S+]([O-])c1sc2nc(-c3cccnc3)cc(-c3ccncc3)c2c1N (configuration not stated) [US20240043440, Example 71] | 0.98 nM |
| CCCC[S+]([O-])c1sc2nc(-c3cnc(N)nc3)cc(-c3cnc(C)n3C)c2c1N (configuration not stated) [US20240043440, Example 72] | 0.93 nM |
| CCCC[S+]([O-])c1sc2nc(-c3cccnc3)cc(-c3ncsc3C)c2c1N (configuration not stated) [US20240043440, Example 73] | 1 nM |
| CCCC[S+]([O-])c1sc2nc(-c3cccnc3)nc(-c3ccccc3)c2c1N (configuration not stated) [US20240043440, Example 74] | 1.2 nM |
| CCCC[S+]([O-])c1sc2nc(-c3cnn(C)c3)cnc2c1N (configuration not stated) [US20240043440, Example 75] | 2.8 nM |
| CCCC[S+]([O-])c1sc2nc(-c3ccccn3)nc(-c3ccccc3)c2c1N (configuration not stated) [US20240043440, Example 76] | 3.6 nM |

| Compound | IC50 |
| --- | --- |
| CCCC[S+]([O-])c1sc2nc(-c3nccs3)nc(-c3nccn3C)c2c1N (configuration not stated) [US20240043440, Example 77] | 1.8 nM |
| COCCC[S@@+]([O-])c1sc2nc(-c3cccnc3)nc(-c3ccccc3)c2c1N [US20240043440, Example 78-A] | 1 nM |
| COCCC[S+]([O-])c1sc2nc(-c3cccnc3)nc(-c3ccccc3)c2c1N (configuration not stated) [US20240043440, Example 78] | 1.4 nM |
| COCC[S@@+]([O-])c1sc2nc(-c3cccnc3)nc(-c3ccccc3)c2c1N [US20240043440, Example 79-A] | 1 nM |
| COCC[S+]([O-])c1sc2nc(-c3cccnc3)nc(-c3ccccc3)c2c1N (configuration not stated) [US20240043440, Example 79] | 1.5 nM |
| CCCC[S+]([O-])c1sc2nc(-c3ncccn3)nc(-c3ccccc3)c2c1N (configuration not stated) [US20240043440, Example 80] | 12 nM |
| CCCC[S+]([O-])c1sc2nc(-c3cccnc3)nc(-c3cscn3)c2c1N (configuration not stated) [US20240043440, Example 81] | 0.76 nM |
| CCCC[S+]([O-])c1sc2nc(-c3cccnc3)nc(-c3nccs3)c2c1N (configuration not stated) [US20240043440, Example 82] | 1 nM |
| CCCC[S+]([O-])c1sc2nc(-c3cncnc3)nc(-c3ccccc3)c2c1N (configuration not stated) [US20240043440, Example 83] | 1.3 nM |
| CCCC[S+]([O-])c1sc2nc(-c3cccnc3)nc(-c3cncn3C)c2c1N (configuration not stated) [US20240043440, Example 84] | 1.2 nM |
| CCCC[S+]([O-])c1sc2nc(-c3cccnc3)nc(-c3cn(C)cn3)c2c1N (configuration not stated) [US20240043440, Example 85] | 1.3 nM |
| CCCC[S@@+]([O-])c1sc2nc(-c3cccnc3)nc(-c3nccn3C)c2c1N [US20240043440, Example 86A] | 0.56 nM |
| CCCC[S@+]([O-])c1sc2nc(-c3cccnc3)nc(-c3nccn3C)c2c1N [US20240043440, Example 86B] | 41 nM |
| CCCC[S+]([O-])c1sc2nc(-c3cccnc3)nc(-c3nccn3C)c2c1N (configuration not stated) [US20240043440, Example 86] | 1.1 nM |
| COCCC[S@@+]([O-])c1sc2nc(-c3cccnc3)nc(-c3ccc(F)cc3)c2c1N [US20240043440, Example 87A] | 1.3 nM |
| COCCC[S+]([O-])c1sc2nc(-c3cccnc3)cc(-c3cn(C)cn3)c2c1N (configuration not stated) [US20240043440, Example 89] | 1.3 nM |
| COCCC[S+]([O-])c1sc2nc(-c3ccc(N)nc3)cc(-c3cccnc3)c2c1N (configuration not stated) [US20240043440, Example 90] | 2.5 nM |
| COCC[S+]([O-])c1sc2nc(-c3ccc(C4COC4)nc3)cc(-c3ccc(F)cc3)c2c1N (configuration not stated) [US20240043440, Example 91] | 2.4 nM |

Target: T1, 15-hydroxyprostaglandin dehydrogenase [NAD(+)]
Assay: In vitro Assay (5 nM)
Experimental: Each compound for inhibiting enzymatic activity of recombinant 15-PGDH (5 nM) in an in vitro assay.

| Compound | IC50 |
| --- | --- |
| CCCC[S+]([O-])c1sc2nc(-c3nccs3)cc(-c3cnccn3)c2c1N (configuration not stated) [US20240043440, Example 1] | 2.7 nM |
| CCCC[S+]([O-])c1sc2nc(-c3nccs3)cc(-c3ncccn3)c2c1N (configuration not stated) [US20240043440, Example 8] | 2.6 nM |
| CCCC[S+]([O-])c1sc2nc(-c3cccs3)cc(-c3ccccc3)c2c1C (configuration not stated) [US20240043440, Example 10] | 7.1 nM |
| CCCC[S+]([O-])c1cc2c(-c3ccccc3)cc(-c3cccs3)nc2s1 (configuration not stated) [US20240043440, Example 11] | 24.7 nM |
| CCCC[S+]([O-])c1sc2nc(-c3nccs3)nc(-c3cnc(C)n3C)c2c1N (configuration not stated) [US20240043440, Example 15] | 3.7 nM |
| CCCC[S+]([O-])c1sc2nc(-c3cccnc3)cc(-c3ccccc3)c2c1N (configuration not stated) [US20240043440, Example 19] | 2.4 nM |
| CCCC[S+]([O-])c1sc2nc(-c3cncnc3)cc(-c3ccccc3)c2c1N (configuration not stated) [US20240043440, Example 20] | 3.2 nM |
| CCCC[S+]([O-])c1sc2nc(-c3cnc(N)nc3)cc(-c3ccccc3)c2c1N (configuration not stated) [US20240043440, Example 21] | 4 nM |
| CCCC[S+]([O-])c1sc2nc(-c3ccc(F)nc3)cc(-c3ccccc3)c2c1N (configuration not stated) [US20240043440, Example 22] | 4 nM |
| CCCC[S+]([O-])c1sc2nc(-c3cnn(C)c3)cc(-c3ccccc3)c2c1N (configuration not stated) [US20240043440, Example 24] | 3 nM |
| CCCC[S+]([O-])c1sc2nc(-c3nccs3)nc(-c3cccnc3)c2c1N (configuration not stated) [US20240043440, Example 26] | 20 nM |
